Like-named read-outs stand apart in the source and are kept apart here.
Tests used:
[1] = target: T1, Recombinant HCV polymerase (Hepatitis C virus genotype 1b, UniProt P26663); assay: HCV Polymerase Inhibition Assay; format: biochemical; conditions: primer/template-directed transcription, 30 minutes at 30° C.
T1 construct: 2.5 pmoles (0.15 μg) HCV polymerase protein
Outline: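 Recombinant genotype 1b polymerase (2.5 pmol) extended biotin-dG12 on poly(rC)300 with 1 μM GTP plus α-32P-GTP, pH 7.2, 30 min at 30 °C, 1% DMSO final; DE-filter-bound product counted. IC50 fitted from triplicate cpm, refitted with enzyme-concentration (30 nM) tight-binding equation when below 200 nM.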

[2] = system: pestivirus; conditions: Baginski et al. 2000; cited from earlier work
[3] = target: T2, NS5B, the RNA-dependent RNA polymerase (Hepatitis C virus genotype 1b, UniProt P26663); conditions: Ishii et al. 1999; cited from earlier work
T2 construct: NS5B, the RNA-dependent RNA polymerase, is also a useful viral target
T2 sequence (P26663 2420-3010): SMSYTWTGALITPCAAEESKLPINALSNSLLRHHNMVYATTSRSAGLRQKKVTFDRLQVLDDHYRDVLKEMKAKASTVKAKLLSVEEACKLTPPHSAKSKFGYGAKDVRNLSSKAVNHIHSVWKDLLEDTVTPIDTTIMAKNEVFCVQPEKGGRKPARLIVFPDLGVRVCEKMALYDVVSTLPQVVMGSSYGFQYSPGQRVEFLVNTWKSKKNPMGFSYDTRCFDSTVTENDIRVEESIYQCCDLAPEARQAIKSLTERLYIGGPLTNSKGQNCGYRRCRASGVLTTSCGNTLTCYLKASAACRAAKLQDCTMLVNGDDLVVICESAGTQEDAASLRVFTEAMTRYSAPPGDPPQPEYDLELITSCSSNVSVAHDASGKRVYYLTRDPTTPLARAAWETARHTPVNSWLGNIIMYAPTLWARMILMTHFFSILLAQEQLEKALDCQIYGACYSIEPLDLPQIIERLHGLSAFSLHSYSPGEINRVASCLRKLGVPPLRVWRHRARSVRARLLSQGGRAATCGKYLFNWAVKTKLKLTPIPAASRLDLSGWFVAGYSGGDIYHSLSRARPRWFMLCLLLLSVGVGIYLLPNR

T1 sequence (P26663 2420-3010): as above

| SMILES | IC50 ([1]; category symbol) | melting point | inhibitor of pestivirus replication [2] | Inhibition of RdRp activity [3] | IC50 ([1]; read-out: IC50(μM) Category) |
| --- | --- | --- | --- | --- | --- |
| Cc1cc(SC2=C(O)CC(C3CCCC3)(C3CCCC3)OC2=O)c(C(C)(C)C)cc1OS(=O)(=O)c1cn(C)cn1 [Example 182, 1-methyl-1H-imidazole-4-sulfonic acid 5-tert-butyl-4-(6,6-dicyclopentyl-4-hydroxy-2-oxo-5,6-dihydro-2H-pyran-3-ylsulfanyl)-2-methyl-phenyl ester] | 10 to 50 µM | 143 to 145 °C | – | – | – |
| CCCN(C1=C(O)CC(C2CCCC2)(C2CCCC2)OC1=O)c1cccc(N)c1 [Example 187, 3-[(3-Amino-phenyl)-propyl-amino]-6,6-dicyclopentyl-4-hydroxy-5,6-dihydro-pyran-2-one] | > 50 µM | 173 to 175 °C | – | – | – |
| Cc1cc(SC2=C(O)CC(CCc3ccc(O)cc3)(C3CCCCC3)OC2=O)c(C(C)(C)C)cc1N (centres unmarked) [Example 143, 3-(4-Amino-2-tert-butyl-5-methyl-phenylsulfanyl)-6-cyclohexyl-4-hydroxy-6-[2-(4-hydroxy-phenyl)-ethyl]-5,6-dihydro-pyran-2-one] | 1 to 10 µM | > 133 °C | – | – | – |
| O=C1OC(CCc2ccc(O)cc2)(C2CCCC2)CC(O)=C1N(c1ccccc1)c1ccccc1 (centres unmarked) [Example 161, Cyclopentyl-diphenylamino-hydroxy-[2-(4-hydroxy-phenyl)-ethyl]-5,6-dihydro-pyran-2-one] | 1 to 10 µM | 93 to 94 °C | – | – | – |
| CCCN(CCC)CCSc1nnc2c(n1)[nH]c1ccccc12 [VP32947, 3-[((2-dipropylamino)ethyl)thio]-5H-1,2,4-triazino[5,6-b]indole] | – | – | potent inhibitor | – | – |
| CCCN(C1=C(O)C[C@@](CCc2cccc(O)c2)(C2CCCC2)OC1=O)c1ccccc1 [Example 155, 6-(S)-Cyclopentyl-4-hydroxy-6-[2-(3-hydroxy-phenyl)-ethyl]-3-(phenyl-propyl-amino)-5,6-dihydro-pyran-2-one] | 1 to 10 µM | 74 to 76 °C | – | – | – |
| Cc1cc(SC2=C(O)CC(CCc3ccc(O)cc3)(C3CCCC3)OC2=O)c(C(C)(C)C)cc1OS(=O)(=O)N1CCN(C)CC1 (centres unmarked) [Example 147] | 1 to 10 µM | 163 to 165 °C | – | – | – |
| CCNS(=O)(=O)Oc1cc(C(C)(C)C)c(SC2=C(O)CC(CCc3cccc(O)c3)(C3CCCC3)OC2=O)cc1C (centres unmarked) [Example 149, Ethyl-sulfamic acid 5-tert-butyl-4-{6-cyclopentyl-4-hydroxy-6-[2-(3-hydroxy-phenyl)-ethyl]-2-oxo-5,6-dihydro-2H-pyran-3-ylsulfanyl}-2-methyl-phenyl ester] | > 50 µM | 69 to 72 °C | – | – | – |
| CCCN(C1=C(O)CC(C2CCCC2)(C2CCCC2)OC1=O)c1cccc(NS(=O)(=O)c2ccccn2)c1 [Example 184, Pyridine-2-sulfonic acid {3-[(6,6-dicyclopentyl-4-hydroxy-2-oxo-5,6-dihydro-2H-pyran-3-yl)-propyl-amino]-phenyl}-amide] | 10 to 50 µM | 105 to 107 °C | – | – | – |
| Nc1ccn([C@@H]2CS[C@H](COP(=O)(O)OP(=O)(O)OP(=O)(O)O)O2)c(=O)n1 [3TC; lamivudine triphosphate] | – | – | – | Inhibition of RdRp activity | – |
| Cc1cc(SC2=C(O)CC(C3CCCC3)(C3CCCC3)OC2=O)c(C(C)(C)C)cc1OCCO [Example 181, 3-[2-tert-butyl-4-(2-hydroxy-ethoxy)-5-methyl-phenylsulfanyl]-6,6-dicyclopentyl-4-hydroxy-5,6-dihydro-pyran-2-one] | – | 100 to 102 °C | – | – | 36 µM |
| CCCN(C1=C(O)CC(CCc2ccc(O)cc2)(C2CCCC2)OC1=O)c1ccccc1 (centres unmarked) [Example 159, 6-Cyclopentyl-4-hydroxy-6-[2-(4-hydroxy-phenyl)-ethyl]-3-(phenyl-propyl-amino)-5,6-dihydro-pyran-2-one] | 1 to 10 µM | 95 °C | – | – | – |
| O=C(O)CP(=O)(O)O [phosphonoacetic acid, reference compound] | – | – | – | Inhibition of RdRp activity | – |
